Test results taken from patent publication US6355799B1, “Substituted benzene compounds, process for their preparation, and herbicidal and defoliant compositions containing them” (ISK Americas Incorporated, priority 1997, dated 2002).
Like-named read-outs stand apart in the source and are kept apart here.

How the values were obtained:
Format in all cases: in vivo
[1] = tested on: sicklepod (Cassia obtusifolia, CASOB); experiment: Post-emerge test, greenhouse herbicide activity screening; details: post-emerge; for phytotoxicity rating CASOB: 14 days after application, rating scale 0-100
How it was run: (§1)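 Each test used a mechanized track sprayer delivering 187 l/ha of acetone solution at 15–1000 g ai/ha. Post-emerge foliage at 2–3 leaves was treated with added 0.25% v/v non-ionic surfactant and bottom-watered only. Injury was assessed on day 14, where 100 means total kill.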

[2] = tested on: lambsquarters (Chenopodium album, CHEAL); experiment: as above; details: post-emerge; for phytotoxicity rating CHEAL: 14 days after application, rating scale 0-100
How it was run: as §1

[3] = tested on: ivyleaf morningglory (Ipomoea hederacea, IPOHE); experiment: as above; details: post-emerge; for phytotoxicity rating IPOHE: 14 days after application, rating scale 0-100
How it was run: as §1

[4] = tested on: velvetleaf (Abutilon theophrasti, ABUTH); experiment: as above; details: post-emerge; for phytotoxicity rating ABUTH: 14 days after application, rating scale 0-100
How it was run: as §1

[5] = tested on: barnyardgrass (Echinochloa crus-galli, ECHCG); experiment: as above; details: post-emerge; for phytotoxicity rating ECHCG: 14 days after application, rating scale 0-100
How it was run: as §1

[6] = tested on: green foxtail (Setaria viridis, SETVI); experiment: as above; details: post-emerge; for phytotoxicity rating SETVI: 14 days after application, rating scale 0-100
How it was run: as §1

[7] = tested on: johnsongrass (Sorghum halepense, SORHA); experiment: as above; details: post-emerge; for phytotoxicity rating SORHA: 14 days after application, rating scale 0-100
How it was run: as §1

[8] = tested on: sicklepod (Cassia obtusifolia, CASOB); experiment: Pre-emerge test, greenhouse herbicide activity screening; details: Senna obtusifolia, pre-emergence, 336 h, read-out: Pre-emerge Herbicidal Activity CASOB
How it was run: (§2)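 Compounds in acetone were track-sprayed at 15-1000 g ai/ha (187 l/ha) on sandy loam pots: pre-emerge one day after seeding, post-emerge at 2-3 leaf stage with 0.25% v/v non-ionic surfactant. Phytotoxicity was rated 14 days later on a 0 (no damage) to 100 (complete death) scale.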

[9] = tested on: lambsquarters (Chenopodium album, CHEAL); experiment: as above; details: Chenopodium album, pre-emergence, 336 h, read-out: Pre-emerge Herbicidal Activity CHEAL
How it was run: as §2

[10] = tested on: ivyleaf morningglory (Ipomoea hederacea, IPOHE); experiment: as above; details: Ipomoea, pre-emergence, 336 h, read-out: Pre-emerge Herbicidal Activity IPOHE
How it was run: as §2

[11] = tested on: velvetleaf (Abutilon theophrasti, ABUTH); experiment: as above; details: Abutilon theophrasti, pre-emergence, 336 h, read-out: Pre-emerge Herbicidal Activity ABUTH
How it was run: as §2

[12] = tested on: barnyardgrass (Echinochloa crus-galli, ECHCG); experiment: as above; details: Echinochloa crus-galli, pre-emergence, 336 h, read-out: Pre-emerge Herbicidal Activity ECHCG
How it was run: as §2

[13] = tested on: green foxtail (Setaria viridis, SETVI); experiment: as above; details: Setaria viridis, pre-emergence, 336 h, read-out: Pre-emerge Herbicidal Activity SETVI
How it was run: as §2

[14] = tested on: johnsongrass (Sorghum halepense, SORHA); experiment: as above; details: Sorghum halepense, pre-emergence, 336 h, read-out: Pre-emerge Herbicidal Activity SORHA
How it was run: as §2

[15] = tested on: large crabgrass (Digitaria sanguinalis, DIGSA); experiment: as above; details: Digitaria sanguinalis, pre-emergence, 336 h, read-out: Pre-emerge Herbicidal Activity DIGSA
How it was run: as §2

[16] = 63 g ai/ha, phytotoxicity rating 0-100, 14 days after application
[17] = 250 g ai/ha, phytotoxicity rating 0-100, 14 days after application
[18] = pre-emerge, rate 63 g ai/ha, phytotoxicity rating 0-100 at 14 days after application
[19] = pre-emerge, rate 250 g ai/ha, phytotoxicity rating 0-100 at 14 days after application

COC(=O)Nc1c(OC)c(Cl)cc(F)c1-n1c(=O)cc(C(F)(F)F)n(C)c1=O [Compound 4-1, 3-(4chloro-6-fluoro-3-methoxy-2-methoxycarbonylaminophenyl)-1-methyl-6-trifluoromethyl-2,4(1H, 3H)-pyrimidinedione]
95%: pest or weed control at 63 g/ha [8, 16]
0: phytotoxicity rating ECHCG ([5]; 63 g ai/ha) | phytotoxicity rating ECHCG ([5]; 250 g ai/ha) | phytotoxicity rating SETVI ([6]; 63 g ai/ha) | phytotoxicity rating SORHA ([7]; 63 g ai/ha)
20: phytotoxicity rating SORHA ([7]; 250 g ai/ha)
100%: pest or weed control at 250 g/ha [8, 17] | pest or weed control at 63 g/ha [9, 16] | pest or weed control at 250 g/ha [9, 17] | pest or weed control at 63 g/ha [10, 16] | pest or weed control at 250 g/ha [10, 17] | pest or weed control at 63 g/ha [11, 16] | pest or weed control at 250 g/ha [11, 17] | pest or weed control at 250 g/ha [12, 17] | pest or weed control at 63 g/ha [13, 16] | pest or weed control at 250 g/ha [13, 17] | pest or weed control at 250 g/ha [14, 17] | pest or weed control at 250 g/ha [15, 17]
60: phytotoxicity rating CHEAL ([2]; 63 g ai/ha)
50: phytotoxicity rating CASOB ([1]; 250 g ai/ha)
30: phytotoxicity rating CASOB ([1]; 63 g ai/ha)
10: phytotoxicity rating SETVI ([6]; 250 g ai/ha)
10%: pest or weed control at 63 g/ha [12, 16]
100: phytotoxicity rating IPOHE ([3]; 63 g ai/ha) | phytotoxicity rating IPOHE ([3]; 250 g ai/ha) | phytotoxicity rating ABUTH ([4]; 63 g ai/ha) | phytotoxicity rating ABUTH ([4]; 250 g ai/ha)
98: phytotoxicity rating CHEAL ([2]; 250 g ai/ha)
60%: pest or weed control at 63 g/ha [14, 16] | pest or weed control at 63 g/ha [15, 16]

CC(C)Oc1c(Cl)cc(F)c(-n2nnn(CCCF)c2=O)c1N [Compound 5-18, 1-(2-amino-4-chloro-6-fluoro-3-isopropyloxyphenyl)-4-(3fluoropropyl)-1,4-dihydro-5-oxo-5H-tetrazole]
20%: pest or weed control at 250 g/ha [15, 19]
70%: pest or weed control at 63 g/ha ([4]; Abutilon theophrasti, post-emergence, 336 h, 63 g ai/ha, phytotoxicity rating 0-100 at 14 days after application, read-out: Post-emerge Herbicidal Activity ABUTH) | pest or weed control at 250 g/ha ([4]; Abutilon theophrasti, post-emergence, 336 h, 250 g ai/ha, phytotoxicity rating 0-100 at 14 days after application, read-out: Post-emerge Herbicidal Activity ABUTH) | pest or weed control at 63 g/ha [9, 18] | pest or weed control at 250 g/ha [11, 19]
30%: pest or weed control at 250 g/ha [14, 19] | pest or weed control at 63 g/ha [15, 18]
90%: pest or weed control at 250 g/ha [13, 19]
0%: pest or weed control at 63 g/ha ([1]; Senna obtusifolia, post-emergence, 336 h, 63 g ai/ha, phytotoxicity rating 0-100 at 14 days after application, read-out: Post-emerge Herbicidal Activity CASOB) | pest or weed control at 250 g/ha ([1]; Senna obtusifolia, post-emergence, 336 h, 250 g ai/ha, phytotoxicity rating 0-100 at 14 days after application, read-out: Post-emerge Herbicidal Activity CASOB) | pest or weed control at 63 g/ha ([3]; Ipomoea, post-emergence, 336 h, 63 g ai/ha, phytotoxicity rating 0-100 at 14 days after application, read-out: Post-emerge Herbicidal Activity IPOHE) | pest or weed control at 250 g/ha ([3]; Ipomoea, post-emergence, 336 h, 250 g ai/ha, phytotoxicity rating 0-100 at 14 days after application, read-out: Post-emerge Herbicidal Activity IPOHE) | pest or weed control at 63 g/ha ([5]; Echinochloa crus-galli, post-emergence, 336 h, 63 g ai/ha, phytotoxicity rating 0-100 at 14 days after application, read-out: Post-emerge Herbicidal Activity ECHCG) | pest or weed control at 250 g/ha ([5]; Echinochloa crus-galli, post-emergence, 336 h, 250 g ai/ha, phytotoxicity rating 0-100 at 14 days after application, read-out: Post-emerge Herbicidal Activity ECHCG) | pest or weed control at 63 g/ha ([6]; Setaria viridis, post-emergence, 336 h, 63 g ai/ha, phytotoxicity rating 0-100 at 14 days after application, read-out: Post-emerge Herbicidal Activity SETVI) | pest or weed control at 250 g/ha ([6]; Setaria viridis, post-emergence, 336 h, 250 g ai/ha, phytotoxicity rating 0-100 at 14 days after application, read-out: Post-emerge Herbicidal Activity SETVI) | pest or weed control at 63 g/ha ([7]; Sorghum halepense, post-emergence, 336 h, 63 g ai/ha, phytotoxicity rating 0-100 at 14 days after application, read-out: Post-emerge Herbicidal Activity SORHA) | pest or weed control at 250 g/ha ([7]; Sorghum halepense, post-emergence, 336 h, 250 g ai/ha, phytotoxicity rating 0-100 at 14 days after application, read-out: Post-emerge Herbicidal Activity SORHA) | pest or weed control at 63 g/ha [8, 18] | pest or weed control at 63 g/ha [10, 18] | pest or weed control at 250 g/ha [10, 19] | pest or weed control at 63 g/ha [12, 18] | pest or weed control at 250 g/ha [12, 19]
40%: pest or weed control at 63 g/ha [11, 18] | pest or weed control at 63 g/ha [14, 18]
10%: pest or weed control at 63 g/ha ([2]; Chenopodium album, post-emergence, 336 h, 63 g ai/ha, phytotoxicity rating 0-100 at 14 days after application, read-out: Post-emerge Herbicidal Activity CHEAL) | pest or weed control at 250 g/ha ([2]; Chenopodium album, post-emergence, 336 h, 250 g ai/ha, phytotoxicity rating 0-100 at 14 days after application, read-out: Post-emerge Herbicidal Activity CHEAL) | pest or weed control at 250 g/ha [8, 19]
95%: pest or weed control at 250 g/ha [9, 19] | pest or weed control at 63 g/ha [13, 18]
